Laboratory results as given in patent US6737383B1, “Herbicidal oxadiazolidines” (priority 1999, dated 2004).

What was measured:
velvetleaf = experiment: Test A velvetleaf; format: in vivo, Abutilon theophrasti; details: 0 to 10 scale where 0 is no effect and 10 is complete control
Procedure, shortened: (§1)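 Injury scored visually after about eleven greenhouse days against untreated plants, 0 = no effect, 10 = complete control. Compounds, formulated in surfactant-containing non-phytotoxic solvent, were applied as preemergence soil drench to sandy loam plantings and as postemergence runoff spray at the 1–2 leaf stage.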

morningglory = experiment: Test A morningglory; format: in vivo, Ipomoea spp.; details: 0 to 10 scale where 0 is no effect and 10 is complete control
Procedure, shortened: as §1

johnsongrass = experiment: Test C postemergence johnsongrass; format: in vivo, Sorghum halepense; details: 0 to 100 scale, 0 no effect, 100 complete control
Procedure, shortened: (§2)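 Greenhouse postemergence test: compound applied in solvent/surfactant formulation to established plants; visual scoring 0–100 against untreated controls after roughly two to three weeks (14–21 days).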

arrowleaf sida = experiment: Test C postemergence arrowleaf sida; format: in vivo, Sida rhombifolia; details: 0 to 100 scale, 0 no effect, 100 complete control
Procedure, shortened: as §2

surinam grass [1] = experiment: Test C postemergence surinam grass; format: in vivo, Brachiaria decumbens; details: 0 to 100 scale, 0 no effect, 100 complete control
Procedure, shortened: as §2

cotton = experiment: Test C postemergence cotton; format: in vivo, Gossypium hirsutum; details: 0 to 100 scale, 0 no effect, 100 complete control
Procedure, shortened: as §2

ivyleaf morningglory = experiment: Test C postemergence ivyleaf morningglory; format: in vivo, Ipomoea hederacea; details: 0 to 100 scale, 0 no effect, 100 complete control
Procedure, shortened: as §2

field bindweed = experiment: Test C postemergence field bindweed; format: in vivo, Convolvulus arvensis; details: 0 to 100 scale, 0 no effect, 100 complete control
Procedure, shortened: as §2

purple nutsedge [2] = experiment: Test C postemergence purple nutsedge; format: in vivo, Cyperus rotundus; details: 0 to 100 scale, 0 no effect, 100 complete control
Procedure, shortened: as §2

giant foxtail = experiment: Test C postemergence giant foxtail; format: in vivo, Setaria faberii; details: 0 to 100 scale, 0 no effect, 100 complete control
Procedure, shortened: as §2

barnyardgrass = experiment: Test C postemergence barnyardgrass; format: in vivo, Echinochloa crus-galli; details: 0 to 100 scale, 0 no effect, 100 complete control
Procedure, shortened: as §2

soybean = experiment: Test C postemergence soybean; format: in vivo, Glycine max; details: 0 to 100 scale, 0 no effect, 100 complete control
Procedure, shortened: as §2

ladysthumb smartweed = experiment: Test C postemergence ladysthumb smartweed; format: in vivo, Polygonum persicaria; details: 0 to 100 scale, 0 no effect, 100 complete control
Procedure, shortened: as §2

common ragweed = experiment: Test C postemergence common ragweed; format: in vivo, Ambrosia elatior; details: 0 to 100 scale, 0 no effect, 100 complete control
Procedure, shortened: as §2

Johnson grass = experiment: Test D Johnson grass; format: in vivo, Sorghum halepense; details: Postemergence, 0 to 100 scale
large crabgrass = experiment: Test D large crabgrass; format: in vivo, Digitaria sanguinalis; details: Postemergence, 0 to 100 scale
Green foxtail [3] = experiment: Test D green foxtail; format: in vivo; details: Postemergence, 0 to 100 scale, 0 no injury, 100 complete control
guineagrass = experiment: Test D guineagrass; format: in vivo, Panicum maximum; details: Postemergence, 0 to 100 scale
surinam grass [4] = experiment: Test D surinam grass; format: in vivo, Brachiaria decumbens; details: Postemergence, 0 to 100 scale
purple nutsedge [5] = experiment: Test D purple nutsedge; format: in vivo, Cyperus rotundus; details: Postemergence, 0 to 100 scale
dallisgrass = experiment: Test D dallisgrass; format: in vivo, Paspalum dilatatum; details: Postemergence, 0 to 100 scale
Green foxtail [6] = experiment: Test D green foxtail; format: in vivo; details: Rate 250 g/ha; Postemergence; 0 to 100 scale
[7] = Rate 64 g/ha, 0 no injury, 100 complete control
[8] = Rate 16 g/ha, 0 no injury, 100 complete control
[9] = Rate 32 g/ha, 0 no injury, 100 complete control
[10] = Rate 125 g/ha, 0 no injury, 100 complete control

CCN(CC)C(=O)n1oc(=O)n(-c2ccc(OC)cc2)c1=O [Compound 1]
0: Plant response rating, Velvetleaf (velvetleaf; Postemergence, Rate 1000 g/ha) | Plant response rating, Velvetleaf (velvetleaf; Pre-emergence, Rate 2000 g/ha) | Plant response rating, Morningglory (morningglory; Postemergence, Rate 1000 g/ha) | Plant response rating, Morningglory (morningglory; Pre-emergence, Rate 2000 g/ha)

Cc1ccccc1-n1c(=O)on(C(=O)N(C2=CCOCC2)C(C)C)c1=O [Compound 10]
2: Plant response rating, Velvetleaf (velvetleaf; Pre-emergence, Rate 2000 g/ha)
1: Plant response rating, Morningglory (morningglory; Pre-emergence, Rate 2000 g/ha)
4: Plant response rating, Velvetleaf (velvetleaf; Postemergence, Rate 1000 g/ha)
0: Plant response rating, Morningglory (morningglory; Postemergence, Rate 1000 g/ha)

CC(C)Oc1cc(-n2c(=O)on(C(=O)N(c3ccc(F)cc3)C(C)C)c2=O)c(Cl)cc1Cl [Compound 43]
0: Plant response rating, Velvetleaf (velvetleaf; Postemergence, Rate 1000 g/ha) | Plant response rating, Velvetleaf (velvetleaf; Pre-emergence, Rate 2000 g/ha) | Plant response rating, Morningglory (morningglory; Postemergence, Rate 1000 g/ha) | Plant response rating, Morningglory (morningglory; Pre-emergence, Rate 2000 g/ha)

CC(C)N(C(=O)n1oc(=O)n(C2CCCCC2C(F)(F)F)c1=O)c1ccc(F)cc1 (stereo not drawn) [Compound 99]
2: Plant response rating, Velvetleaf (velvetleaf; Postemergence, Rate 1000 g/ha) | Plant response rating, Morningglory (morningglory; Postemergence, Rate 1000 g/ha) | Plant response rating, Morningglory (morningglory; Pre-emergence, Rate 2000 g/ha)
3: Plant response rating, Velvetleaf (velvetleaf; Pre-emergence, Rate 2000 g/ha)

CC(C)N(C(=O)n1oc(=O)n(Cc2cccs2)c1=O)c1ccccc1 [Compound 103]
80: Plant response rating Cotton (cotton; Rate 1120 g/ha) | Plant response rating, Barnyardgrass (barnyardgrass; Rate 1120 g/ha)
40: Plant response rating Cotton (cotton; Rate 560 g/ha) | Plant response rating, Giant foxtail (giant foxtail; Rate 1120 g/ha)
0: Plant response rating, Johnsongrass (johnsongrass; Rate 140 g/ha) | Plant response rating, Johnsongrass (johnsongrass; Rate 280 g/ha) | Plant response rating, Johnsongrass (johnsongrass; Rate 560 g/ha) | Plant response rating, Johnsongrass (johnsongrass; Rate 1120 g/ha) | Plant response rating Arrowleaf sida (arrowleaf sida; Rate 140 g/ha) | Plant response rating Arrowleaf sida (arrowleaf sida; Rate 280 g/ha) | Plant response rating Arrowleaf sida (arrowleaf sida; Rate 560 g/ha) | Plant response rating, Surinam grass (surinam grass [1]; Rate 140 g/ha) | Plant response rating, Surinam grass (surinam grass [1]; Rate 280 g/ha) | Plant response rating, Surinam grass (surinam grass [1]; Rate 560 g/ha) | Plant response rating Cotton (cotton; Rate 140 g/ha) | Plant response rating I. morningglory (ivyleaf morningglory; Rate 140 g/ha) | Plant response rating I. morningglory (ivyleaf morningglory; Rate 280 g/ha) | Plant response rating I. morningglory (ivyleaf morningglory; Rate 560 g/ha) | Plant response rating Field bindweed (field bindweed; Rate 140 g/ha) | Plant response rating Field bindweed (field bindweed; Rate 280 g/ha) | Plant response rating Field bindweed (field bindweed; Rate 560 g/ha) | Plant response rating Field bindweed (field bindweed; Rate 1120 g/ha) | Plant response rating, Purple nutsedge (purple nutsedge [2]; Rate 140 g/ha) | Plant response rating, Purple nutsedge (purple nutsedge [2]; Rate 280 g/ha) | Plant response rating, Purple nutsedge (purple nutsedge [2]; Rate 560 g/ha) | Plant response rating, Purple nutsedge (purple nutsedge [2]; Rate 1120 g/ha) | Plant response rating, Giant foxtail (giant foxtail; Rate 140 g/ha) | Plant response rating, Giant foxtail (giant foxtail; Rate 280 g/ha) | Plant response rating, Giant foxtail (giant foxtail; Rate 560 g/ha) | Plant response rating, Barnyardgrass (barnyardgrass; Rate 140 g/ha) | Plant response rating, Barnyardgrass (barnyardgrass; Rate 280 g/ha) | Plant response rating Ladysthumb (ladysthumb smartweed; Rate 140 g/ha) | Plant response rating Ladysthumb (ladysthumb smartweed; Rate 280 g/ha) | Plant response rating Common ragweed (common ragweed; Rate 140 g/ha) | Plant response rating Common ragweed (common ragweed; Rate 280 g/ha) | Plant response rating Common ragweed (common ragweed; Rate 560 g/ha)
30: Plant response rating, Soybean (soybean; Rate 140 g/ha) | Plant response rating, Soybean (soybean; Rate 280 g/ha)
35: Plant response rating, Soybean (soybean; Rate 560 g/ha) | Plant response rating, Soybean (soybean; Rate 1120 g/ha)
20: Plant response rating Cotton (cotton; Rate 280 g/ha)
10: Plant response rating I. morningglory (ivyleaf morningglory; Rate 1120 g/ha) | Plant response rating, Barnyardgrass (barnyardgrass; Rate 560 g/ha) | Plant response rating Ladysthumb (ladysthumb smartweed; Rate 560 g/ha) | Plant response rating Ladysthumb (ladysthumb smartweed; Rate 1120 g/ha)
5: Plant response rating, Surinam grass (surinam grass [1]; Rate 1120 g/ha) | Plant response rating Common ragweed (common ragweed; Rate 1120 g/ha)

CC(C)Cn1c(=O)on(C(=O)N(c2ccc(F)cc2)C(C)C)c1=O [Compound 169]
90: Plant response rating, Dallisgrass (dallisgrass; [7])
65: Surinam grass plant response rating (surinam grass [4]; [7])
0: Plant response rating, Johnsongrass (Johnson grass; [7]) | Guineagrass plant response rating (guineagrass; [7]) | Purple nutsedge plant response rating (purple nutsedge [5]; [7])
100: Plant response rating, Large crabgrass (large crabgrass; [7]) | Plant response rating, Green foxtail (Green foxtail [3]; Rate 64 g/ha) | Plant response rating, Guineagrass (guineagrass; [7])

CC(C)N(C(=O)n1oc(=O)n(C2CC2)c1=O)c1ccc(Cl)cc1 [Compound 241]
10: Plant response rating, Green foxtail (Green foxtail [3]; Rate 64 g/ha)
40: Plant response rating, Dallisgrass (dallisgrass; [9])
0: Plant response rating, Johnsongrass (Johnson grass; [9]) | Plant response rating, Johnsongrass (Johnson grass; [7]) | Plant response rating, Johnsongrass (Johnson grass; [10]) | Plant response rating, Johnsongrass (Johnson grass; Rate 250 g/ha) | Plant response rating, Large crabgrass (large crabgrass; [8]) | Plant response rating, Guineagrass (guineagrass; [8]) | Plant response rating, Guineagrass (guineagrass; [9]) | Plant response rating, Surinam grass (surinam grass [4]; [8]) | Plant response rating, Surinam grass (surinam grass [4]; [9]) | Plant response rating, Purple nutsedge (purple nutsedge [5]; [8]) | Plant response rating, Purple nutsedge (purple nutsedge [5]; [9]) | Purple nutsedge plant response rating (purple nutsedge [5]; [7]) | Purple nutsedge plant response rating (purple nutsedge [5]; [10]) | Plant response rating, Purple nutsedge (purple nutsedge [5]; Rate 250 g/ha) | Plant response rating, Dallisgrass (dallisgrass; [8])
90: Plant response rating, Dallisgrass (dallisgrass; [10])
80: Plant response rating, Johnsongrass (Johnson grass; [8]) | Plant response rating, Guineagrass (guineagrass; [7])
100: Plant response rating, Large crabgrass (large crabgrass; [7]) | Plant response rating, Large crabgrass (large crabgrass; [10]) | Plant response rating, Large crabgrass (large crabgrass; Rate 250 g/ha) | Plant response rating, Green foxtail (Green foxtail [3]; Rate 125 g/ha) | Guineagrass plant response rating (guineagrass; [7]) | Plant response rating, Guineagrass (guineagrass; [10]) | Plant response rating, Guineagrass (guineagrass; Rate 250 g/ha) | Surinam grass plant response rating (surinam grass [4]; [10]) | Plant response rating, Surinam grass (surinam grass [4]; Rate 250 g/ha) | Plant response rating, Dallisgrass (dallisgrass; Rate 250 g/ha) | Plant response rating, Green foxtail (Green foxtail [6])
70: Plant response rating, Large crabgrass (large crabgrass; [9])
50: Plant response rating, Dallisgrass (dallisgrass; [7])
60: Surinam grass plant response rating (surinam grass [4]; [7])

CC(C)N(C(=O)n1oc(=O)n(C2CCC2)c1=O)c1ccccc1 [Compound 348]
80: Plant response rating, Guineagrass (guineagrass; Rate 250 g/ha) | Surinam grass plant response rating (surinam grass [4]; [10])
20: Plant response rating, Johnsongrass (Johnson grass; [10]) | Plant response rating, Large crabgrass (large crabgrass; [8]) | Surinam grass plant response rating (surinam grass [4]; [7])
90: Plant response rating, Johnsongrass (Johnson grass; Rate 250 g/ha) | Plant response rating, Dallisgrass (dallisgrass; [7])
50: Plant response rating, Dallisgrass (dallisgrass; [9])
60: Plant response rating, Large crabgrass (large crabgrass; [9])
100: Plant response rating, Large crabgrass (large crabgrass; [7]) | Plant response rating, Large crabgrass (large crabgrass; [10]) | Plant response rating, Large crabgrass (large crabgrass; Rate 250 g/ha) | Plant response rating, Green foxtail (Green foxtail [3]; Rate 64 g/ha) | Plant response rating, Green foxtail (Green foxtail [3]; Rate 125 g/ha) | Plant response rating, Guineagrass (guineagrass; [10]) | Plant response rating, Surinam grass (surinam grass [4]; Rate 250 g/ha) | Plant response rating, Dallisgrass (dallisgrass; [10]) | Plant response rating, Dallisgrass (dallisgrass; Rate 250 g/ha) | Plant response rating, Green foxtail (Green foxtail [6])
0: Plant response rating, Johnsongrass (Johnson grass; [8]) | Plant response rating, Johnsongrass (Johnson grass; [9]) | Plant response rating, Johnsongrass (Johnson grass; [7]) | Plant response rating, Guineagrass (guineagrass; [8]) | Plant response rating, Guineagrass (guineagrass; [9]) | Plant response rating, Guineagrass (guineagrass; [7]) | Plant response rating, Surinam grass (surinam grass [4]; [8]) | Plant response rating, Surinam grass (surinam grass [4]; [9]) | Plant response rating, Purple nutsedge (purple nutsedge [5]; [8]) | Plant response rating, Purple nutsedge (purple nutsedge [5]; [9]) | Purple nutsedge plant response rating (purple nutsedge [5]; [7]) | Purple nutsedge plant response rating (purple nutsedge [5]; [10]) | Plant response rating, Purple nutsedge (purple nutsedge [5]; Rate 250 g/ha) | Plant response rating, Dallisgrass (dallisgrass; [8])
